Common to all, as to assay: growth of human tumour cells (NCI), 48 h
Experiment [1] has as its system NCI/ADR-RES ovarian.
In experiment [2] the test system is PC-3 prostate.
Experiment [3] concerns RXF 393 renal.
Experiment [4] deals with CCRF-CEM leukemia.
Experiment [5] concerns T-47D breast.
Experiment [6] relates to BT-549 breast.
The subject of experiment [7] is SW-620 colon.
For experiment [8], the system named is NCI-H522 lung.

The values below come from PubChem BioAssay (NCI).

Structures are written as SMILES.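 Grown in 96-well plates, cells were treated for 48 hours with each compound at five concentrations. Insufficient inhibition: endpoint recorded as highest concentration tested. Abbreviation: GI50, concentration required for 50% inhibition of growth. TGI: total growth inhibition.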

`CCOC(=O)C(=Cc1c(-c2ccccc2)[nH]c2ccccc12)C(=O)OCC`: the GI50 in experiment [1] is 2.84 µM; in experiment [2], 3.19 µM; in experiment [3], 3.1 µM; in experiment [4], 2.58 µM; in experiment [5], 2.62 µM; in experiment [6] it was 5.17 µM. The GI50 in experiment [7] was 5.57 µM; in experiment [8], 3.32 µM. Further, the TGI in experiment [1] came out at 14.6 µM; in experiment [2], 14.3 µM; in experiment [3], 12.1 µM; in experiment [4] it was 9.75 µM; in experiment [5], 8.43 µM; in experiment [6], 38.5 µM. Further, the figures for the TGI in experiment [7] and in experiment [8] were 22.1 µM and 11.8 µM, respectively.
As for `COC12C=C/C(=C(/C(=O)OCc3csc(SC)n3)C(=O)CCCCCCCCC3(OC)C=C/C(=C(/C(=O)OCc4cnc(SC)s4)C(=O)CCCCCCCC1)O3)O2` (stereo not given), the GI50 was 31.3 µM in experiment [1]; 4.16 µM in experiment [2]; 1.75 µM in experiment [3]; 0.455 µM in experiment [4]; 2.94 µM in experiment [5]; 4.53 µM in experiment [6]. For the same molecule, the GI50 in experiment [7] is 3.66 µM; in experiment [8], 1.5 µM. Also, the TGI in experiment [1] is above 100 µM; in experiment [2] it was above 100 µM; in experiment [3], 3.52 µM; in experiment [4], above 100 µM; in experiment [5], above 100 µM; in experiment [6] it was 69.8 µM. The figures for the TGI in experiment [7] and in experiment [8] were above 100 µM and 21.1 µM, respectively.
Consider `N=C(N)SCC(=O)O`, for which the TGI in experiment [1], in experiment [2], in experiment [3], in experiment [4], in experiment [5] and in experiment [6] was above 100 µM throughout. The TGI in experiment [7] and in experiment [8] was above 100 µM throughout.
For `CCCCCCCCCCCCNC(=O)[C@H]1CSC(c2ccsc2)N1` (stereo not given in full), the GI50 is 1.23 µM in experiment [1]; 0.837 µM in experiment [2]; 0.96 µM in experiment [3]; 0.976 µM in experiment [5]; 0.797 µM in experiment [6]; 0.969 µM in experiment [7]. Moreover, in experiment [8], the GI50 is 5.14 µM. The TGI in experiment [1] is 2.56 µM; in experiment [2], 1.56 µM; in experiment [3], 1.69 µM; in experiment [5], 2.02 µM; in experiment [6] it was 1.58 µM; in experiment [7], 1.85 µM. In experiment [8], this molecule returned a TGI of 11.8 µM.
With `N#CC1=C(N)Oc2c(sc3c(Br)cccc23)C1c1ccc(F)cc1` (stereo not given), the GI50 in experiment [1] was 0.215 µM; in experiment [2], 0.405 µM; in experiment [4] it was 0.381 µM; in experiment [5], 0.34 µM; in experiment [6] it was 1.01 µM; in experiment [7], 0.476 µM. The GI50 in experiment [8] is 0.0838 µM. The TGI in experiment [1] was determined as 2.63 µM; in experiment [2] it was 18.1 µM; in experiment [4], 13 µM; in experiment [5], 19.7 µM; in experiment [6], 19.3 µM; in experiment [7], 34.6 µM. The molecule further yielded a TGI in experiment [8] of 13.7 µM.
On to `NC1(C(=O)O)CSSC1`, for which the GI50 in experiment [1] was 3.46 µM; in experiment [2], 21.5 µM; in experiment [3] it was 3.13 µM; in experiment [4], 13.2 µM; in experiment [5] it was 32.1 µM; in experiment [6] it was 4.87 µM. In addition, the figures for the GI50 in experiment [7] and in experiment [8] were 10.4 µM and 3.41 µM, respectively. For the same molecule, the TGI in experiment [1] is 27.7 µM; in experiment [2] it was above 100 µM; in experiment [3], 11.1 µM; in experiment [4] it was above 100 µM; in experiment [5], above 100 µM; in experiment [6] it was 40.2 µM. Besides, the TGI was above 100 µM in experiment [7] and 17.7 µM in experiment [8].
As to `O=C(Nc1nc2ccc(F)cc2s1)c1cccnc1Nc1ccc(Cl)cc1Cl`, the GI50 in experiment [1] is 2.59 µM; in experiment [2], 2.21 µM; in experiment [3], 3.31 µM; in experiment [4] it was 1.82 µM; in experiment [5], 1.61 µM; in experiment [6], 2.97 µM. Also, the figures for the GI50 in experiment [7] and in experiment [8] were 3.04 µM and 2.53 µM, respectively. The TGI in experiment [1] came to 10.5 µM; in experiment [2], 9.45 µM; in experiment [3], 11.7 µM; in experiment [4] it was 12.6 µM; in experiment [5], 8.01 µM; in experiment [6] it was 17.5 µM. The TGI in experiment [7] was 15.1 µM; in experiment [8], above 25.6 µM.
For `O=C(O)C(O)c1ccc(F)cc1` (stereo not given), the TGI in experiment [1], in experiment [2], in experiment [3], in experiment [5], in experiment [6] and in experiment [7] was above 100 µM throughout. In experiment [8], this molecule returned a TGI above 100 µM.
As to `CC[C@H](C)[C@H](NC(=O)N[C@@H](C)c1ccccc1)C(=O)N(C)[C@H](C[C@@H](OC(C)=O)c1nc(C(=O)N[C@@H](Cc2ccccc2)C[C@H](C)C(=O)OC)cs1)C(C)C`, the GI50 was 45.8 µM in experiment [1]; 27.5 µM in experiment [2]; 13.9 µM in experiment [3]; 23.9 µM in experiment [4]; 97.9 µM in experiment [5]; 21.4 µM in experiment [6]. For the same molecule, the GI50 in experiment [7] is 26.4 µM; in experiment [8], 13 µM. Further, the TGI was above 100 µM in experiment [1]; above 100 µM in experiment [2]; 57.3 µM in experiment [3]; above 100 µM in experiment [4]; above 100 µM in experiment [5]; 74.9 µM in experiment [6]. Also, the figures for the TGI in experiment [7] and in experiment [8] were above 100 µM and 42.1 µM, respectively.
As for `CC(=O)Nc1ccc2c(c1)CN1C(=O)c3ccccc3C1=N2`, the GI50 in experiment [1], in experiment [2], in experiment [3], in experiment [4], in experiment [5] and in experiment [7] was above 100 µM throughout. Besides, the TGI in experiment [1], in experiment [2], in experiment [3], in experiment [4], in experiment [5] and in experiment [7] was above 100 µM each time.
